Tested on: not given
Conditions: not given

| Structure (SMILES) | melting point |
| --- | --- |
| CCN(c1ccc2c(c1)C(C)(C)CCC2(C)C)c1ccc(C(=O)O)cn1 [Example 1, 6-(ethyl(5,5,8,8-tetramethyl-5,6,7,8-tetrahydronaphthalen-2-yl)amino)nicotinic acid] | 230 to 232 °C |
| CCN(c1ccc(C(=O)O)cc1)c1ccc2c(c1)C(C)(C)CCC2(C)C [Example 2, 4-(Ethyl(5,5,8,8-tetramethyl-5,6,7,8-tetrahydronaphthalen-2-yl)amino)benzoic acid] | 247.8 to 250.6 °C |
| CCN(c1ccc(C(=O)O)cc1)c1cc2c(cc1C)C(C)(C)CCC2(C)C [Example 3, 4-(Ethyl(3,5,5,8,8-pentamethyl-5,6,7,8-tetrahydronaphthalen-2-yl)amino)benzoic acid] | 252.4 to 256.8 °C |
| CCN(c1ncc(C(=O)O)cn1)c1cc2c(cc1C)C(C)(C)CCC2(C)C [Example 6, 2-(Ethyl(3,5,5,8,8-pentamethyl-5,6,7,8-tetrahydronaphthalen-2-yl)amino)pyrimidine-5-carboxylic acid] | 231.9 to 233.1 °C |
| CCN(c1ccc2c(c1)C(C)(C)CCC2(C)C)c1cnc(C(=O)O)cn1 [Example 7, 5-(Ethyl(5,5,8,8-tetramethyl-5,6,7,8-tetrahydronaphthalen-2-yl)amino)pyrazine-2-carboxylic acid] | 213.1 to 214.4 °C |
| CCN(c1cnc(C(=O)O)cn1)c1cc2c(cc1C)C(C)(C)CCC2(C)C [Example 8, 5-(Ethyl(3,5,5,8,8-pentamethyl-5,6,7,8-tetrahydronaphthalen-2-yl)amino)pyrazine-2-carboxylic acid] | 203.6 to 205.1 °C |
| CCN(c1ccc(C(=O)O)c(F)c1)c1ccc2c(c1)C(C)(C)CCC2(C)C [Example 9, 4-(Ethyl(5,5,8,8-tetramethyl-5,6,7,8-tetrahydronaphthalen-2-yl)amino)-2-fluorobenzoic acid] | 252.4 to 256.8 °C |
| CCN(c1ccc(C(=O)O)c(F)c1)c1cc2c(cc1C)C(C)(C)CCC2(C)C [Example 10, 4-(Ethyl(3,5,5,8,8-pentamethyl-5,6,7,8-tetrahydronaphthalen-2-yl)amino)-2-fluorobenzoic acid] | 241.4 to 243.8 °C |

Molecular target: hRXRβ (Homo sapiens, UniProt P28702)
Conditions: read-out: EC50 for the hRXRβ isoform; cited from earlier work

Sequence of hRXRβ (P28702 whole entry, canonical isoform): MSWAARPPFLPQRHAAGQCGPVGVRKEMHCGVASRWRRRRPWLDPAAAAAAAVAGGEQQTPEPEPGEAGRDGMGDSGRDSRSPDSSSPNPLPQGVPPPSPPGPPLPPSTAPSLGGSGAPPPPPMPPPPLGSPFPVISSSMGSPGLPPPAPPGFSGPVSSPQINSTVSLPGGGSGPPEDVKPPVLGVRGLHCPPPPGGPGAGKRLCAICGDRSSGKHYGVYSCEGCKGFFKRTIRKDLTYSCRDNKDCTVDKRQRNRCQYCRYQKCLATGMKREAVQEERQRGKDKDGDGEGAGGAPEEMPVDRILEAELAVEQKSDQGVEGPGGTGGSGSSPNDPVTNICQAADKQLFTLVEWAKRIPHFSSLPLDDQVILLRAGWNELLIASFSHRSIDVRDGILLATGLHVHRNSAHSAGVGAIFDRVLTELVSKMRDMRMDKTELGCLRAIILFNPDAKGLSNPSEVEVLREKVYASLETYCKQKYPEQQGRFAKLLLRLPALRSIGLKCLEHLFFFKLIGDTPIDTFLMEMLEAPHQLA

| Structure (SMILES) | EC50 |
| --- | --- |
| Cc1cc2c(cc1-c1cc(/C=C/C(=O)O)ccc1O)C(C)(C)CCC2(C)C [CD3254] | ~10 nM |

— patent publication US10238655B2, “Dihydroindene and tetrahydronaphthalene compounds” (ARIZONA BOARD OF REGENTS ON BEHALF OF ARIZONA STATE …, priority 2017, dated 2019)
